pIC50: −log10 of the molar value.

In this experiment the test system is human platelet suspension. The experiment can be described thus: U46619-induced platelet aggregation in human platelet suspension. Format: cell-based. As to conditions: Homo sapiens, Platelet, U46619-induced aggregation, platelet suspension; read-out: P.S(U46619) IC50. The method, then:
Human platelet suspension (PS) was prepared according to the method described previously. Briefly, blood sample, freshly obtained from healthy volunteers who had taken no medications during the preceding 2 weeks, was treated with acid citrate/dextrose (ACD) in a volume ratio of 9:1. After centrifugation at 120 g, 25° C. for 9 min, platelet-rich plasma was transferred into another plastic tube and incubated with heparin (6.4 U/ml) as well as prostaglandin E1 (1 μM). Platelets were spun down by centrifugation at 500 g, 25° C. for 8 min and subsequently washed two times with Tyrode solution (NaH2PO4 0.4 mM; NaCl 136.9 mM; KCl […]; NaHCO3 11.9 mM; CaCl2 2 mM; MgCl2 2.1 mM; glucose 11.1 mM; BSA 3.5 mg/ml; pH 7.35-7.4). The washed platelets were finally suspended in Tyrode's solution and the platelet count was adjusted to 3.75×10^8 platelets/ml. For platelet-rich plasma (PRP) preparation, whole blood was anticoagulated with 1/10 vol of sodium citrate (3.8%, w/v) and centrifuged at 150 g, 25° C. for 9 min.
Platelet aggregation was measured turbidimetrically with a Lumi-aggregometer (Payton Scientific) at 37° C. under stirring condition (900 rpm). Platelet suspensions were prewarmed to 37° C. for 2 min in a silicone-treated glass cuvette. Nstpbp5185 was added 3 min before the addition of platelet-aggregation inducers. The extent of platelet aggregation was determined by recording the increase of light transmission relative to that of control (maximal aggregation, as 100%) for 6 min after the addition of inducer. The final volume and platelet count for measuring platelet aggregation were 500 μl and 3×10^8/ml, respectively.
One may read the pIC50 as −log10 of the IC50, conventionally taken in molar units. Regarding `Cc1ccc(Cn2c(-c3ccc(C)o3)nc3cc(Cl)ccc32)cc1` [Example 51b, 5-chloro-1-(4-methylbenzyl)-2-(5-methyl-2-furyl)benzimidazole], the pIC50 was 4.20.

`Cc1cccc(Cn2c(-c3ccc(C)o3)nc3cc(Cl)ccc32)c1` [Example 52a, 5-chloro-1-(3-methylbenzyl)-2-(5-methyl-2-furyl)benzimidazole]: the pIC50 is 4.52.

`Cc1cccc(Cn2c(-c3ccc(C)o3)nc3ccc(Cl)cc32)c1` [Example 52b, 6-chloro-1-(3-methylbenzyl)-2-(5-methyl-2-furyl)benzimidazole]: the pIC50 was 5.28.

With `Cc1ccc(-c2nc3cc(Cl)ccc3n2Cc2ccccc2C)o1` [Example 53a, 5-chloro-1-(2-methylbenzyl)-2-(5-methyl-2-furyl)benzimidazole], the pIC50 is 5.22.

Regarding `Cc1ccc(-c2nc3ccc(Cl)cc3n2Cc2ccccc2C)o1` [Example 53b, 6-chloro-1-(2-methylbenzyl)-2-(5-methyl-2-furyl)benzimidazole], the pIC50 was 5.49.

Turning to `Cc1ccc(-c2nc3cc(Cl)c(Cl)cc3[nH]2)o1` [Example 54, 5,6-dichloro-2-(5-methyl-2-furyl)benzimidazole], the negative-log IC50 (pIC50) was 5.29.

In the case of `Cc1ccc(-c2nc3cc(Cl)c(Cl)cc3n2Cc2ccccc2)o1` [Example 54a, 1-Benzyl-5,6-dichloro-2-(5-methyl-2-furyl)benzimidazole], the pIC50 was 5.16.

Turning to `Cc1ccc(-c2nc3cc(Cl)c(Cl)cc3n2Cc2ccc([N+](=O)[O-])cc2)o1` [Example 55, 5,6-dichloro-1-(4-nitrobenzyl)-2-(5-methyl-2-furyl)benzimidazole], the pIC50 is < 4.30.

For `Cc1ccc(-c2nc3cc(Cl)c(Cl)cc3n2Cc2cccc([N+](=O)[O-])c2)o1` [Example 56, 5,6-dichloro-1-(3-nitrobenzyl)-2-(5-methyl-2-furyl)benzimidazole], the pIC50 was 4.57.

Consider `Cc1ccc(-c2nc3cc(Cl)c(Cl)cc3n2Cc2ccccc2[N+](=O)[O-])o1` [Example 57, 5,6-dichloro-1-(2-nitrobenzyl)-2-(5-methyl-2-furyl)benzimidazole], for which the pIC50 was < 4.30.

For the molecule `Cc1ccc(-c2nc3cc(Cl)c(Cl)cc3n2Cc2ccc(Cl)cc2)o1` [Example 58, 5,6-Dichloro-1-(4-chlorobenzyl)-2-(5-methyl-2-furyl)benzimidazole], the pIC50 is 5.02.

Regarding `Cc1ccc(-c2nc3cc(Cl)c(Cl)cc3n2Cc2cccc(Cl)c2)o1` [Example 59, 5,6-dichloro-1-(3-chlorobenzyl)-2-(5-methyl-2-furyl)benzimidazole], the pIC50 was 5.43.

For the molecule `Cc1ccc(-c2nc3cc(Cl)c(Cl)cc3n2Cc2ccccc2Cl)o1` [Example 60, 5,6-dichloro-1-(2-chlorobenzyl)-2-(5-methyl-2-furyl)benzimidazole], the pIC50 was 4.37.

For `COc1ccc(Cn2c(-c3ccc(C)o3)nc3cc(Cl)c(Cl)cc32)cc1` [Example 61, 5,6-dichloro-1-(4-methoxybenzyl)-2-(5-methyl-2-furyl)benzimidazole], the negative-log IC50 (pIC50) was 4.57.

For the molecule `COc1cccc(Cn2c(-c3ccc(C)o3)nc3cc(Cl)c(Cl)cc32)c1` [Example 62, 5,6-Dichloro-1-(3-methoxybenzyl)-2-(5-methyl-2-furyl)benzimidazole], the pIC50 is 5.05.

For `Cc1ccc(-c2nc3cc(Cl)c(Cl)cc3n2Cc2ccc(F)cc2)o1` [Example 63, 5,6-dichloro-1-(4-fluorobenzyl)-2-(5-methyl-2-furyl)benzimidazole], the pIC50 was 5.57.

In the case of `Cc1ccc(-c2nc3cc(Cl)c(Cl)cc3n2Cc2cccc(F)c2)o1` [Example 64, 5,6-dichloro-1-(3-fluorobenzyl)-2-(5-methyl-2-furyl)benzimidazole], the pIC50 was 5.76.

As to `Cc1ccc(-c2nc3cc(Cl)c(Cl)cc3n2Cc2ccccc2F)o1` [Example 65, 5,6-dichloro-1-(2-fluorobenzyl)-2-(5-methyl-2-furyl) benzimidazole], the pIC50 is 5.08.

The values above are taken from patent US20170152245A1 (National Taiwan University, priority 2015, published 2017).
